Entries after “also recorded” stand apart in the source; their conditions may differ.
Assays:
WT mice = assay: E2/P4-induced hernia formation in WT mice; type: in vivo, mouse; conditions: WT male mice
Description: All placebo-treated Arom^hum mice developed hernias starting from 5 weeks of age. None of the WT littermates developed hernias. […] The mouse scrotum is connected to the peritoneal cavity with a narrow funicular (or inguinal) canal, with walls composed of LAM tissue. Structurally normal LAM tissue is essential to maintain the tone of this canal and prevent herniation of the bowel.
Experiment 1a1: Does the addition of P4 to E2 treatment accelerate LAM fibrosis and hernia formation in WT mice? It was shown that treatment of male WT mice with extremely high doses of systemic estrogens starting around or after the onset of puberty caused inguinal hernia in one third to half of these animals^23-25. We hypothesize that this effect is primarily mediated by the E2 induction of PGR expression in LAM fibroblasts. Male mice have readily detectable P4 levels in the circulation and LAM tissue to activate PGR in LAM fibroblasts (FIG. 6). If this were true, the addition of pharmacologic quantities of P4 (75 mg/pellet for 12-week release)^73 to E2 (0.3 mg/pellet for 12-week release)^23-25 in WT mice should accelerate this phenotype. Our ongoing preliminary study, whereby a 6-week treatment with P4+E2 induced large inguinal hernia in all WT mice (FIG. 7A), supports the following experiment. Long-term (8 weeks or longer) treatment with E2 only is anticipated to cause hernias in up to half of WT mice based on previous findings^23-25. We will determine whether P4+E2 treatment over 12 weeks will give rise to larger hernias in a higher number of mice compared with E2-only treatment. […] See Statistical Methods above for sample size calculation. Hernia surface area will be measured using a digital caliper and calculated as previously described (length×width)^19. At the designated endpoints, LAM and UAM (control) from each mouse will be resected, with one-half of the tissue snap-frozen in liquid nitrogen, and the other half fixed in 4% phosphate-buffered paraformaldehyde for histological and IHC analyses (see below). […]

Arom^hum mice [1] = conditions: earlier work of the applicant (refs 19, 22); cited from earlier work
Arom^hum mice [2] = conditions: previously shown (ref 19); cited from earlier work
[3] = system: PGR expression in LAM fibroblasts of Arom^hum mice; assay: E2/ESR1-induced PGR expression (mRNA, immunoblotting) in LAM fibroblasts; type: cell-based, mouse; conditions: for E2-induced expression of Pgr (mRNA): 100 nM ICI 182,780 or 10 μM MPP, pretreated 2 h, E2 10 nM
Method: (A) Time course of E2 (10 nM) effect on PGR protein expression in LAM fibroblasts of Arom^hum mice. […] (E) PGR protein levels in LAM primary fibroblasts from WT and Arom^hum mice after treatment with ICI with or without E2 for 48 h. Cells were pretreated with ICI or MPP for 2 h before adding E2. Data are representative of 3 independent experiments; B-actin serves as a loading control for (A) and (E). Vch: vehicle. […] MPP: A selective ESR1 antagonist.
Breast cancer cell line T47D served as a positive control.

Arom^hum mice [4] = assay: Reversal of existing (large) hernias in Arom^hum mice; type: in vivo, mouse; conditions: Arom^hum mice with large hernias; 3.75 mg/pellet, 12-week subcutaneous release; n=10-11
Description: Arrows in panels B and D point to hernias.
The scrotal area in WT mice is under ˜125 mm^2. We classified hernias as small, medium, or large based on the bulging area through muscle tissue of 125-175 mm^2, 175-225 mm^2, or ≥225 mm^2, respectively. […] Since long-term anti-E2/ESR1 treatments cause significant side effects (e.g., sexual dysfunction or osteoporosis), we mechanistically explored the specific and major downstream effectors of E2/ESR1 signaling leading to muscle fibrosis. […] The key observations that support the role of P4/PGR signaling are summarized below.

Arom^hum mice [5] = assay: Hernia prevention in Arom^hum mice (treatment before hernia formation); type: in vivo, mouse; conditions: male Arom^hum mice; 12-week treatment started at 3-3.5 weeks of age (before hernia formation); vs placebo
Description: Our study design is robust, utilizing Arom^hum mice with endpoints examined after treatment with placebo or anti-P4/PGR, and compared to those of WT littermates using 2 different tissue sites: UAM and LAM (normal or weakened/herniated). Inguinal hernia affects predominantly men vs. women (10:1 ratio). Inguinal hernias are unique to male mice and aged men. […] Here, we will focus on the effects of P4/PGR action on skeletal muscle integrity and hernia formation in males, and our work will be carried out in male mice or tissues primarily from men over 50 years of age. We will use mouse or human tissues or primary cells to closely recapitulate in vivo pathology.
The mouse scrotum is connected to the peritoneal cavity with a narrow funicular (or inguinal) canal, with walls composed of LAM tissue. Structurally normal LAM tissue is essential to maintain the tone of this canal and prevent herniation of the bowel.
Experiment 1a1: Does the addition of P4 to E2 treatment accelerate LAM fibrosis and hernia formation in WT mice? […] We hypothesize that this effect is primarily mediated by the E2 induction of PGR expression in LAM fibroblasts. […] If this were true, the addition of pharmacologic quantities of P4 (75 mg/pellet for 12-week release)^73 to E2 (0.3 mg/pellet for 12-week release)^23-25 in WT mice should accelerate this phenotype. […] See Statistical Methods above for sample size calculation. Hernia surface area will be measured using a digital caliper and calculated as previously described (length×width)^19. At the designated endpoints, LAM and UAM (control) from each mouse will be resected, with one-half of the tissue snap-frozen in liquid nitrogen, and the other half fixed in 4% phosphate-buffered paraformaldehyde for histological and IHC analyses (see below). All tissue and serum (for P4/E2 levels) samples will be collected between 10:00 AM and noon to avoid possible variability in daily hormone fluctuations. […] We will continue to complete the rest of the proposed study in this subaim. We will also assess whether and extent of muscle fibrosis and atrophy will be induced in P4+E2-induced large hernias and E2-induced small hernias. […] P4 antagonists show various levels of selectivity for PGR. […] The use of 3 distinct P4/PGR antagonists with different properties will establish the role of PGR in muscle fibrosis and hernia.
Hernias will be classified as small, medium, or large if the bulging area through muscle tissue is 125-175 mm^2, 175-225 mm^2, or >225 mm^2, respectively. […] We will assess whether muscle fibrosis, atrophy, and hernia are arrested or reversed. […] Hernia size will be measured. After completion of treatment, the mice will be dissected, and LAM, UAM (control), and serum will be collected. A total of 100 mg of tissue (LAM and UAM) will be obtained and frozen for measurement of tissue E2/P4.

SMILES: CC(=O)[C@H]1CC[C@H]2[C@@H]3CCC4=CC(=O)CC[C@]4(C)[C@H]3CC[C@]12C [P4, Progesterone]
- hernia formation (WT mice; treatment started at 9-10 weeks of age, up to 12 weeks): did not induce any hernia formation

SMILES: N#Cc1ccc(C(c2ccc(C#N)cc2)n2cncn2)cc1 [letrozole, Letrozole]
- reversal of existing hernias (Arom^hum mice [1]): reversed existing hernias and restored normal anatomy in Arom^hum mice
- prevention of LAM fibrosis and hernia formation (Arom^hum mice [2]): entirely prevents this phenotype

SMILES: C[C@]12CC[C@@H]3c4ccc(O)cc4C[C@@H](CCCCCCCCC[S+]([O-])CCCC(F)(F)C(F)(F)F)[C@H]3[C@@H]1CC[C@@H]2O (some centres unmarked) [fulvestrant]
- E2-induced expression of Pgr (mRNA) [3]: significantly decreased E2-induced expression of Pgr
- protein levels of 3 PGR isoforms (immunoblotting) ([3]; LAM fibroblasts of WT and Arom^hum mice, ICI with or without E2 for 48 h): blocked
- reversal of existing hernias (Arom^hum mice [1]): reversed existing hernias and restored normal anatomy in Arom^hum mice
- reversal of large hernias, LAM fibrosis and muscle atrophy (Arom^hum mice [4]): reversed large hernias and restored normal anatomy and reversed LAM tissue fibrosis and muscle atrophy; also recorded: successfully reversed them to normal size, rescued LAM fibrosis, reversed muscle atrophy, and restored normal anatomy

SMILES: C[C@]12CCC(=O)C[C@@H]1CC[C@@H]1[C@@H]2CC[C@]2(C)[C@@H](O)CC[C@@H]12 [DHT]
- hernia formation / hernia size (Arom^hum mice [5]): None prevented hernia formation

SMILES: C[C@]12CC[C@@H]3c4ccc(O)cc4CC[C@H]3[C@@H]1CC[C@@H]2O [E2, Estradiol]
- hernia size induced (WT mice; treatment started at the age of 9 weeks): 125-175 mm2

SMILES: Cc1c(-c2ccc(O)cc2)nn(-c2ccc(O)cc2)c1-c1ccc(OCCN2CCCCC2)cc1 [MPP]
- E2-induced expression of Pgr (mRNA) [3]: significantly decreased E2-induced expression of Pgr

SMILES: Cc1cc(-c2ncc(CC(=O)Nc3ccc(-c4cnccn4)cn3)cc2C)ccn1 [LGK974]
- hernia formation / hernia size (Arom^hum mice [5]): None prevented hernia formation

Source: patent US20250186461A1, “METHODS AND COMPOSITIONS FOR TREATING AND/OR PREVENTING HERNIAS” (Northwestern University, priority 2023, published 2025)
